Experimental data published in US8435756B2, “Anionic acid-labile surfactants and methods of use” (Protea Biosciences, Inc., priority 2008, dated 2013).

How the values were obtained:
[1] = target: BSA (Bos taurus, UniProt P02769); assay: Protein score from in-solution tryptic digestion of BSA (MALDI-TOF, peptide mass fingerprinting); details: tryptic digestion of 250 pmol BSA, 0.05% AALS-6 in digestion buffer; FIG. 2
Experimental: Protein scores from in-solution digestion of BSA in buffers containing an embodiment of an anionic acid-labile surfactant (“AALS-6”) and three commercially available acid labile surfactants are illustrated in FIG. 2. A tryptic digestion of 250 pmol BSA is performed using 0.05% AALS-6 in digestion buffer. For the other surfactants, digestion is performed according to the manufacturer's protocols. Sample clean-up and MALDI spotting is performed using C18 reversed phase tips. MALDI-TOF spectra are acquired using an ABI 4800 mass spectrometer in the reflector mode. Protein identification is accomplished through peptide mass fingerprinting (PMF) of the acquired MS spectra.
Algorithms that compare mass spectrometric data to database for protein identification compare the experimental tandem mass spectra against theoretical mass spectra from all peptides and proteins present in the databases. As an output for the database correlation analysis, a protein identification score is generated for each potential protein match. Protein matches are required to have a minimum protein score to be considered a potential positive and significant protein identification. The higher the score, the more likely that the protein identification is real and not a result of random events that match the database. […]

[2] = target: T1, ovalbumin (Gallus gallus, UniProt P01012); assay: Protein score from in-solution tryptic digestion of ovalbumin (MALDI-TOF MS/MS, Mascot); details: tryptic digestion of 250 μmol ovalbumin; 0.05% AALS-6, other surfactants per manufacturer's protocols; FIG. 3
T1 sequence (P01012 1-386): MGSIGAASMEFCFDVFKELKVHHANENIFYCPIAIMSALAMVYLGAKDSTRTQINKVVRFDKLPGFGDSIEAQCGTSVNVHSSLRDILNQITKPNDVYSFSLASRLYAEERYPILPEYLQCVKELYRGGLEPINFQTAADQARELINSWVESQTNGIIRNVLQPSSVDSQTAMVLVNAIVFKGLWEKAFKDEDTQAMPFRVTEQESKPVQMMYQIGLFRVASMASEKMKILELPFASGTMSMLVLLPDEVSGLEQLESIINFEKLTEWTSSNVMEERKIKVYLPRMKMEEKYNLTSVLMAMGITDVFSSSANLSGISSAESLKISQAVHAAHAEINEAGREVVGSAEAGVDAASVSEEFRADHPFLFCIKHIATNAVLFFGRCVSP
Experimental: The protein scores from in-solution digestion of ovalbumin in buffers containing an embodiment of an anionic acid-labile surfactant (“AALS-6”) and three commercially available acid labile surfactants are illustrated in FIG. 3. A tryptic digestion of […] ovalbumin was performed using 0.05% AALS-6 in digestion buffer. For the other surfactants, digestion was performed according to the manufacturer's protocols. Sample clean-up and MALDI spotting was performed using C18 reversed phase tips. MALDI-TOF MS and MS/MS spectra were acquired using an ABI 4800 mass spectrometer in the reflector mode. Protein identification was accomplished through database searching MS/MS spectra using Mascot search engine.
The ovalbumin control digestion score is 347. In general, the higher protein score indicates an increase in the quality and/or completeness of the digestion because more peptides are available for analysis by the mass spectrometer, and/or the quality of the digested sample delivered to the mass spectrometer is increased. […] The higher protein score of AALS-6 may also be due to its degradation kinetics. For example, once the digestion experiment is complete, the degradation of the surfactant reduces contamination of the signal by detergent molecules and by-products as well as reduces the ion suppression effects commonly seen in mass spectrometry analysis of peptides and proteins.

[3] = Critical micellular concentration; type: physicochemical

Sequence of BSA (P02769 25-607): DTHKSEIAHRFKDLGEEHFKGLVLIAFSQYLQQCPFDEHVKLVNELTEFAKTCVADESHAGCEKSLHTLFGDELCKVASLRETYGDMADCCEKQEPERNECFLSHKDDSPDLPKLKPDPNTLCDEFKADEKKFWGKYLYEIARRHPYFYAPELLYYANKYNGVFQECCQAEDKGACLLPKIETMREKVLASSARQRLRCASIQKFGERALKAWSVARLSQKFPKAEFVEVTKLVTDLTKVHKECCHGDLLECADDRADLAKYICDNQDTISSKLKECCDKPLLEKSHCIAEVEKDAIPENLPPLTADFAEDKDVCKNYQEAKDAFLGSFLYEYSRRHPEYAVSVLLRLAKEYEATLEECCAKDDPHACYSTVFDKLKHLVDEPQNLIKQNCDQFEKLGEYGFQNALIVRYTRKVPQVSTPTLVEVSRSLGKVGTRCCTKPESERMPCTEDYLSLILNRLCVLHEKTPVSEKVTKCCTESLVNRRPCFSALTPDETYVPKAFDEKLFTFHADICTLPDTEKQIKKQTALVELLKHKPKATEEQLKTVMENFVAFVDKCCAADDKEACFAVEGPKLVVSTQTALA

average protein score [1] | average protein score [2] | critical micellular concentration [3] | Compound
93 | 487 | 7.7 mM | CCCCCCOC(C)(COS(=O)(=O)[O-])OCCCCCC.[Na+] [AALS-6, sodium 2,2-bis(hexyloxy)propyl sulfate]
– | 329 | – | CCCCCCCCCCC(OC(=O)NCCCS(=O)(=O)[O-])c1ccco1.[Na+] (centres unmarked) [Proteamax]
– | 341 | – | CCCCCCCCCCCC1(C)OCC(COCCCS(=O)(=O)[O-])O1.[Na+] (centres unmarked) [Rapigest]
